According to patent US12227500B2, “Substituted pyrrolo[2,3-b]pyridines for suppressing toxic endoplasmic reticulum stress” (THE TRUSTEES OF COLUMBIA UNIVERSITY IN THE CITY OF NEW YORK, priority 2018, dated 2025):
Where two headings read alike, the source gives them in different places.

Experiments:
Assay in all cases: Radiolabeled ATP kinase assay, panel of 371 kinases (Table S6)
Type in all cases: biochemical
[1] = target: T1, panel of 371 human kinases (Homo sapiens, UniProt Q9UIK4); conditions: DAPK2; 0.1 μM; 10 μM ATP; read-out: % Enzyme Activity (relative to DMSO controls)
T1 construct: purchased Reaction Biology Corp
Source text: (§1) ; FIG. 38C). […]. Further targeted analyses, such as genetic knock-down or knock-out, may be warranted to parse the role of these additional kinases in our model of neurodegeneration.

[2] = target: T2, panel of 371 human kinases (Homo sapiens, UniProt Q9P0L2); conditions: MARK1; 0.1 μM; 10 μM ATP; read-out: % Enzyme Activity (relative to DMSO controls)
T2 construct: purchased Reaction Biology Corp
Source text: as §1

[3] = target: T3, panel of 371 human kinases (Homo sapiens, UniProt Q07912); conditions: ACK1; 0.1 μM; 10 μM ATP; read-out: % Enzyme Activity (relative to DMSO controls)
T3 construct: purchased Reaction Biology Corp
Source text: as §1

[4] = target: T4, panel of 371 human kinases (Homo sapiens, UniProt Q9NQU5); conditions: PAK6; 0.1 μM; 10 μM ATP; read-out: % Enzyme Activity (relative to DMSO controls)
T4 construct: purchased Reaction Biology Corp
Source text: as §1

[5] = target: T5, panel of 371 human kinases (Homo sapiens, UniProt P35626); conditions: GRK3; 0.1 μM; 10 μM ATP; read-out: % Enzyme Activity (relative to DMSO controls)
T5 construct: purchased Reaction Biology Corp
Source text: as §1

[6] = target: T6, panel of 371 human kinases (Homo sapiens, UniProt Q09013); conditions: DMPK; 0.1 μM; 10 μM ATP; read-out: % Enzyme Activity (relative to DMSO controls)
T6 construct: purchased Reaction Biology Corp
Source text: as §1

[7] = target: T7, panel of 371 human kinases (Homo sapiens, UniProt Q8TD08); conditions: ERK7/MAPK15; 0.1 μM; 10 μM ATP; read-out: % Enzyme Activity (relative to DMSO controls)
T7 construct: purchased Reaction Biology Corp
Source text: as §1

[8] = target: T8, panel of 371 human kinases (Homo sapiens, UniProt P24941); conditions: 0.1 μM, 10 μM ATP, read-out: % Enzyme Activity (relative to DMSO controls)
T8 construct: purchased Reaction Biology Corp
Source text: as §1

[9] = target: T9, panel of 371 human kinases (Homo sapiens, UniProt Q8IYT8); conditions: ULK2; 0.1 μM; 10 μM ATP; read-out: % Enzyme Activity (relative to DMSO controls)
T9 construct: purchased Reaction Biology Corp
Source text: as §1

[10] = target: T10, panel of 371 human kinases (Homo sapiens, UniProt Q04759); conditions: PKCtheta; 0.1 μM; 10 μM ATP; read-out: % Enzyme Activity (relative to DMSO controls)
T10 construct: purchased Reaction Biology Corp
Source text: as §1

[11] = target: T11, panel of 371 human kinases (Homo sapiens, UniProt Q9Y6M4); conditions: CK1g3; 0.1 μM; 10 μM ATP; read-out: % Enzyme Activity (relative to DMSO controls)
T11 construct: purchased Reaction Biology Corp
Source text: as §1

[12] = target: T12, panel of 371 human kinases (Homo sapiens, UniProt Q08345); conditions: DDR1; 0.1 μM; 10 μM ATP; read-out: % Enzyme Activity (relative to DMSO controls)
T12 construct: purchased Reaction Biology Corp
Source text: as §1

[13] = target: T13, panel of 371 human kinases (Homo sapiens, UniProt Q13153); conditions: PAK1; 0.1 μM; 10 μM ATP; read-out: % Enzyme Activity (relative to DMSO controls)
T13 construct: purchased Reaction Biology Corp
Source text: as §1

[14] = target: T14, panel of 371 human kinases (Homo sapiens, UniProt P00519); conditions: ABL1; 0.1 μM; 10 μM ATP; read-out: % Enzyme Activity (relative to DMSO controls)
T14 construct: purchased Reaction Biology Corp
Source text: as §1

[15] = target: T15, panel of 371 human kinases (Homo sapiens, UniProt Q96RR4); conditions: CAMKK2; 0.1 μM; 10 μM ATP; read-out: % Enzyme Activity (relative to DMSO controls)
T15 construct: purchased Reaction Biology Corp
Source text: as §1

[16] = target: T16, panel of 371 human kinases (Homo sapiens, UniProt P06241); conditions: FYN; 0.1 μM; 10 μM ATP; read-out: % Enzyme Activity (relative to DMSO controls)
T16 construct: purchased Reaction Biology Corp
Source text: as §1

[17] = target: T17, panel of 371 human kinases (Homo sapiens, UniProt P80192); conditions: MLK1/MAP3K9; 0.1 μM; 10 μM ATP; read-out: % Enzyme Activity (relative to DMSO controls)
T17 construct: purchased Reaction Biology Corp
Source text: as §1

[18] = target: T18, panel of 371 human kinases (Homo sapiens, UniProt Q05655); conditions: PKCd; 0.1 μM; 10 μM ATP; read-out: % Enzyme Activity (relative to DMSO controls)
T18 construct: purchased Reaction Biology Corp
Source text: as §1

[19] = target: T19, panel of 371 human kinases (Homo sapiens, UniProt Q9Y572); conditions: RIPK3; 0.1 μM; 10 μM ATP; read-out: % Enzyme Activity (relative to DMSO controls)
T19 construct: purchased Reaction Biology Corp
Source text: as §1

[20] = target: T20, panel of 371 human kinases (Homo sapiens, UniProt P36894); conditions: ALK1/BMPR1A; 0.1 μM; 10 μM ATP; read-out: % Enzyme Activity (relative to DMSO controls)
T20 construct: purchased Reaction Biology Corp
Source text: as §1

[21] = target: T21, panel of 371 human kinases (Homo sapiens, UniProt Q9BZL6); conditions: PKD2/PRKD2; 0.1 μM; 10 μM ATP; read-out: % Enzyme Activity (relative to DMSO controls)
T21 construct: purchased Reaction Biology Corp
Source text: as §1

[22] = target: T22, panel of 371 human kinases (Homo sapiens, UniProt Q14012); conditions: CAMK1a; 0.1 μM; 10 μM ATP; read-out: % Enzyme Activity (relative to DMSO controls)
T22 construct: purchased Reaction Biology Corp
Source text: as §1

[23] = target: T23, panel of 371 human kinases (Homo sapiens, UniProt Q8N752); conditions: CK1a1L; 0.1 μM; 10 μM ATP; read-out: % Enzyme Activity (relative to DMSO controls)
T23 construct: purchased Reaction Biology Corp
Source text: as §1

[24] = target: T24, panel of 371 human kinases (Homo sapiens, UniProt P30530); conditions: AXL; 0.1 μM; 10 μM ATP; read-out: % Enzyme Activity (relative to DMSO controls)
T24 construct: purchased Reaction Biology Corp
Source text: as §1

T19 sequence (Q9Y572 whole entry): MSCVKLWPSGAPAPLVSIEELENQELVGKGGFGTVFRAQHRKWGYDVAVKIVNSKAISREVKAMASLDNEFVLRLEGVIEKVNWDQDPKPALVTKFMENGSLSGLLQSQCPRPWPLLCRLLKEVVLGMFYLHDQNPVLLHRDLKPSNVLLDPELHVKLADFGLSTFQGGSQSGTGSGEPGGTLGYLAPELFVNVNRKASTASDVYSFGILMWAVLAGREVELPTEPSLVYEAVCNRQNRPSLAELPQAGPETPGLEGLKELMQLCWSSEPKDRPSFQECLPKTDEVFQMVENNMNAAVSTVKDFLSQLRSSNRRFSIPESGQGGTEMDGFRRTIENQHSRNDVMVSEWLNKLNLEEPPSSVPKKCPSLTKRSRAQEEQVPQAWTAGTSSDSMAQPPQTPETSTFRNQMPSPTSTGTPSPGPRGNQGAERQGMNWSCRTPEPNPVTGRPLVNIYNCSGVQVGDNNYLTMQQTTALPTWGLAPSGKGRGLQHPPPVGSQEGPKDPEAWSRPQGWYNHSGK
T4 sequence (Q9NQU5 whole entry): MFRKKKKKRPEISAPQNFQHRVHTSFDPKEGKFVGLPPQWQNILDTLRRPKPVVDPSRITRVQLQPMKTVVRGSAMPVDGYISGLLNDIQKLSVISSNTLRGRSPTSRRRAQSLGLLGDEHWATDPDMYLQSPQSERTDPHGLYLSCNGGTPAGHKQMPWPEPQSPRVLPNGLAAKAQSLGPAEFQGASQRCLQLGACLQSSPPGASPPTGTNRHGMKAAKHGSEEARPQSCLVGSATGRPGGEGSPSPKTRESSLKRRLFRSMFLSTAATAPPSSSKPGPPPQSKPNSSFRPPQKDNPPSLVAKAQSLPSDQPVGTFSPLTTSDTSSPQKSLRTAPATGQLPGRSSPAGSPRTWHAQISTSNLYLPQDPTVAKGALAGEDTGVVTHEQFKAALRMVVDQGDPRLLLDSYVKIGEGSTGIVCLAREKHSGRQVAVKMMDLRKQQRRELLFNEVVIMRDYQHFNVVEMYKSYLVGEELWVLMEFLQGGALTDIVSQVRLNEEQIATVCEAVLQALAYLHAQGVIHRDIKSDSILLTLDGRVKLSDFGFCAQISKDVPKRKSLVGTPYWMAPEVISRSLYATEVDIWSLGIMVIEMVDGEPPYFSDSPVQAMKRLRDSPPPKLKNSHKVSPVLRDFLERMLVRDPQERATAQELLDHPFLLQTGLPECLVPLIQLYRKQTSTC
T3 sequence (Q07912 whole entry): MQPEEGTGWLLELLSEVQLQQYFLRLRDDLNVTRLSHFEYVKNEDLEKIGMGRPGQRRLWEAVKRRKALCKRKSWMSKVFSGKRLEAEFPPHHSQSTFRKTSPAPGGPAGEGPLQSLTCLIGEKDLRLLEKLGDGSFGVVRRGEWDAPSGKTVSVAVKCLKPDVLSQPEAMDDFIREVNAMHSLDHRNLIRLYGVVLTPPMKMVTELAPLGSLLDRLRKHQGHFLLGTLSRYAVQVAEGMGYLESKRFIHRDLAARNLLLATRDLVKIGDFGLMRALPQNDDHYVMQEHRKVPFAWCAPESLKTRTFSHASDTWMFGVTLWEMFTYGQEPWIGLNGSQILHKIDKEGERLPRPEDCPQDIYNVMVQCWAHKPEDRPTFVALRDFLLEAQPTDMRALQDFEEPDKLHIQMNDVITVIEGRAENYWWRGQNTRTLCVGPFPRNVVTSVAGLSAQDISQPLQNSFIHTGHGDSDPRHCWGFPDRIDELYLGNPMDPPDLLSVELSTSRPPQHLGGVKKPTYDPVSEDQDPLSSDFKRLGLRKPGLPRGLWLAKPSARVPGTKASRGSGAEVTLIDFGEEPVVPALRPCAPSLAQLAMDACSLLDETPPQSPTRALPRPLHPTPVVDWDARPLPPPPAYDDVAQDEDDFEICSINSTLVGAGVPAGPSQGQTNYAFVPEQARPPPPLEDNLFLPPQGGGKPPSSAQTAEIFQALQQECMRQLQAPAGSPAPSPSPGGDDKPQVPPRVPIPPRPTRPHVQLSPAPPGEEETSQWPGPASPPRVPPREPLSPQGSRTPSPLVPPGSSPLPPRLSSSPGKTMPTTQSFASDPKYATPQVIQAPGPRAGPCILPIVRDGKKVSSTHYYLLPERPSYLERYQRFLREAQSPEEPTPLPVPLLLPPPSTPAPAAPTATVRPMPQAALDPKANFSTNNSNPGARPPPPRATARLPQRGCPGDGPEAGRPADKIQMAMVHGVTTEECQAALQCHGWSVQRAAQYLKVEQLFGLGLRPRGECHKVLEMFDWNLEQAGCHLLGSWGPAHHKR
T23 sequence (Q8N752 whole entry): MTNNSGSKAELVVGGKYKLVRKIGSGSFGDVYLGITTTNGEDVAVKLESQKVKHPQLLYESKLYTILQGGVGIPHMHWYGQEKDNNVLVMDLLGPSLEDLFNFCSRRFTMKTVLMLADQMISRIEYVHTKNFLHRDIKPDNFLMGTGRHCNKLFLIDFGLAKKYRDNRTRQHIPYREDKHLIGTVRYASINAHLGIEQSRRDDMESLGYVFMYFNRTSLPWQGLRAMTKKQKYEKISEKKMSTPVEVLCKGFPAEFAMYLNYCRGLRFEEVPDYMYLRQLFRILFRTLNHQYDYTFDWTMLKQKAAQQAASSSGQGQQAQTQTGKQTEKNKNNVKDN
T2 sequence (Q9P0L2 whole entry): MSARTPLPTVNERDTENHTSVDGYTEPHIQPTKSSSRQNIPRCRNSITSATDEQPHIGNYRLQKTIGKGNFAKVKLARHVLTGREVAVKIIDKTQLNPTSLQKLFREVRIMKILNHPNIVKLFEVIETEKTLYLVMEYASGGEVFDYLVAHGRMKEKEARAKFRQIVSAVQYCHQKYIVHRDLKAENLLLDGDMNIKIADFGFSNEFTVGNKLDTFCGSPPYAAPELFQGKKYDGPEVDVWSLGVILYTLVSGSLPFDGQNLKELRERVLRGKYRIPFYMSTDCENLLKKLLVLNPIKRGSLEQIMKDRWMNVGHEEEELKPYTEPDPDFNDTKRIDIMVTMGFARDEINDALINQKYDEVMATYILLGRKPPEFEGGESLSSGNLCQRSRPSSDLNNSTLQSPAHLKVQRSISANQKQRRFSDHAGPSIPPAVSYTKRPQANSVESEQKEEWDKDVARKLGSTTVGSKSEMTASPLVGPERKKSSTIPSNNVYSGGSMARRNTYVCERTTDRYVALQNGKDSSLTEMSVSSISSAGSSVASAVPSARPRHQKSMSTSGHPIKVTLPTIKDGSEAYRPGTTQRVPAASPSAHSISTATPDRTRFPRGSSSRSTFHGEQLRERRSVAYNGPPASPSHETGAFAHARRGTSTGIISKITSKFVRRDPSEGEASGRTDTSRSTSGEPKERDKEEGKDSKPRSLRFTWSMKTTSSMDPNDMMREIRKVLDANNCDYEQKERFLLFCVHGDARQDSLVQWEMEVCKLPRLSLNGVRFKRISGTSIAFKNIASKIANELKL
T21 sequence (Q9BZL6 whole entry): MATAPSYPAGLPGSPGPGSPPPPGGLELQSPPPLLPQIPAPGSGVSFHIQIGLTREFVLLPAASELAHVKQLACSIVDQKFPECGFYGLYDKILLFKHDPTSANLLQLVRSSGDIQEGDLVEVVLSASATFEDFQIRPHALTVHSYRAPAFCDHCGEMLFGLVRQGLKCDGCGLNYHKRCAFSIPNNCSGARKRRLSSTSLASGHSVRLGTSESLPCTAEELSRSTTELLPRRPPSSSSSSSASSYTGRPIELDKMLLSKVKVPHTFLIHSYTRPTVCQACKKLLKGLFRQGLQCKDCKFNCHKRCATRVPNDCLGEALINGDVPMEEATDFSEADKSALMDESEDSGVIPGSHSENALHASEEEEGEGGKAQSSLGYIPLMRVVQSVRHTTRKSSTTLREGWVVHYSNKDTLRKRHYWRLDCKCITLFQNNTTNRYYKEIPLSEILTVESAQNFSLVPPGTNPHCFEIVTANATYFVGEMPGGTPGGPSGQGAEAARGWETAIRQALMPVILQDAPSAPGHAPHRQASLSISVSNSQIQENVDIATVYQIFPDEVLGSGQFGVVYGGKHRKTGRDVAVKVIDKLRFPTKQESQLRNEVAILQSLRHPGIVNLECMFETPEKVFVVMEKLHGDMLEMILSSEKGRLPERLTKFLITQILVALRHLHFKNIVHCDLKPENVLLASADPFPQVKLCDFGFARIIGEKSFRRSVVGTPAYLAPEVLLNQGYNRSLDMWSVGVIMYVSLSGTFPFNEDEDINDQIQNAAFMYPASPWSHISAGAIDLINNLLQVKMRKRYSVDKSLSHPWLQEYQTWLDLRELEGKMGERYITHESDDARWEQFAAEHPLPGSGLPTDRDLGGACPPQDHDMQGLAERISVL
T20 sequence (P36894 24-532): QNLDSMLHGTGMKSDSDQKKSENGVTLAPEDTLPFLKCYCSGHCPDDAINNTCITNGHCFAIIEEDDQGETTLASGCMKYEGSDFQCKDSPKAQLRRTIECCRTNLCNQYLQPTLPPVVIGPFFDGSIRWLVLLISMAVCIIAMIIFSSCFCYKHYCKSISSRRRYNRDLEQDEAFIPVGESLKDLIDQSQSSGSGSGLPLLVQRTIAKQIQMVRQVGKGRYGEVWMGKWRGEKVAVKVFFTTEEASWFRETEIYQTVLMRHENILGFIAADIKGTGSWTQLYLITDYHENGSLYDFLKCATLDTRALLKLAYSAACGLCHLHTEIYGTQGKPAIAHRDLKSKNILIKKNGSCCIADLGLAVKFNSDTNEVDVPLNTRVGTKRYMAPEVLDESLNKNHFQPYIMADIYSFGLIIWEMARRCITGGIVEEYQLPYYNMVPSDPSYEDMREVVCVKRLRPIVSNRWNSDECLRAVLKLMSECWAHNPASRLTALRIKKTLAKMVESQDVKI

Row | SMILES | remaining activity at 0.1 µM [1] [%] | remaining activity at 0.1 µM [2] [%] | remaining activity at 0.1 µM [3] [%] | remaining activity at 0.1 µM [4] [%] | remaining activity at 0.1 µM [5] [%] | remaining activity at 0.1 µM [6] [%] | remaining activity at 0.1 µM [7] [%] | remaining activity at 0.1 µM ([8]; CDK2/cyclin A1) [%] | remaining activity at 0.1 µM ([8]; CDK2/cyclin A) [%] | remaining activity at 0.1 µM ([8]; CDK2/cyclin E2) [%] | remaining activity at 0.1 µM ([8]; CDK2/cyclin E) [%] | remaining activity at 0.1 µM ([8]; CDK2/cyclin O) [%] | remaining activity at 0.1 µM [9] [%] | remaining activity at 0.1 µM [10] [%] | remaining activity at 0.1 µM [11] [%] | remaining activity at 0.1 µM [12] [%] | remaining activity at 0.1 µM [13] [%] | remaining activity at 0.1 µM [14] [%] | remaining activity at 0.1 µM [15] [%] | remaining activity at 0.1 µM [16] [%] | also measured
1 | CN1CCN(Cc2ccc(-c3cnc4[nH]cc(-c5ccc6[nH]ccc6c5)c4c3)cc2)CC1 [Compound 1, 3-(1H-Indol-5-yl)-5-(4-((4-methylpiperazin-1-yl)methyl)phenyl)-1H-pyrrolo[2,3-b]pyridine, reference compound] | 118 | 86.2 | 87.3 | 94.6 | 106 | 96.6 | 109 | 94.2 | 90.2 | 110 | 96.1 | 102 | 80.4 | 90.8 | 92.2 | 89.9 | 85.2 | 68.2 | 97.7 | 92.1 | remaining activity at 0.1 µM [17]: 48.2%; remaining activity at 0.1 µM [18]: 92.3%; remaining activity at 0.1 µM [19]: 100%; remaining activity at 0.1 µM [20]: 97%; remaining activity at 0.1 µM [21]: 23.2%; remaining activity at 0.1 µM [22]: 100%; remaining activity at 0.1 µM [23]: 94.8%; remaining activity at 0.1 µM [24]: 35.8%
2 | OCCN1CCN(Cc2ccc(-c3cnc4[nH]cc(-c5cccc(Cl)c5)c4c3)cc2)CC1 [Compound 12k, 2-(4-(4-(3-(3-Chlorophenyl)-1H-pyrrolo[2,3-b]pyridin-5-yl)benzyl)piperazin-1-yl)ethan-1-ol] | 105 | 52.5 | 93.6 | 96.3 | 104 | 97.7 | 90.4 | 87.1 | 83.1 | 89.6 | 98.3 | 82.5 | 36 | 94.6 | 92.4 | 86.6 | 78.2 | 76.7 | 94.9 | 96.3 | remaining activity at 0.1 µM [17]: 73.7%; remaining activity at 0.1 µM [18]: 102%; remaining activity at 0.1 µM [19]: 99.4%; remaining activity at 0.1 µM [20]: 96.8%; remaining activity at 0.1 µM [21]: 9.36%; remaining activity at 0.1 µM [22]: 121%; remaining activity at 0.1 µM [23]: 107%; remaining activity at 0.1 µM [24]: 39.8%
